From patent publication US11865126B2, “Method for treating anxiety disorders, headache disorders, and eating disorders with psilocybin” (priority 2019, dated 2024)

How the values were obtained:
healthy subjects [1] = test: NEO-Five Factor Inventory (NEO-FFI); type: in vivo, human
Method: In some embodiments, the NEO-Five Factor Inventory (NEO-FFI) test is used to evaluate the safety and/or efficacy of psilocybin. The NEO-FFI evaluates 5 broad domains of personality—Neuroticism, Extroversion, Openness, Agreeableness and Conscientiousness.
The Neuroticism Extraversion Openness-Five Factor Inventory (NEO-FFI) and Symptom Checklist-90 Item (SCL-90) were administered. Details of the MMRM applied to the change from baseline scores for the NEO-FFI and SCL-90 are provided below in Table 28.

[2] = Binge eating model: body weight; settings: 1, 3 and 10 mg/kg IP
healthy subjects [3] = test: Social Value Orientation (SVO); type: in vivo, human
From the text: In some embodiments, the Social Value Orientation (SVO) test is utilized to evaluate the safety and/or efficacy of psilocybin. The SVO Slider Measure has 6 primary items with 9 secondary (and optional) items. All of the items have the same general form. Each item is a resource allocation choice over a well-defined continuum of joint payoffs.
The following list of outcome measures are non-exhaustive. • a. The short-term change from Baseline (Day −1 [Visit 2]) to Day 7 (Visit 5) in cognitive measures of attention, spatial and working memory and executive function was measured by a composite score of the CANTAB Panel (Spatial Working Memory [SWM], Rapid Visual Information Processing [RVP], Paired Associates Learning [PAL]). • b. The short-term change from Baseline (Day −1 [Visit 2]) to Day 7 (Visit 5) in Social Cognition Panel scales (Pictorial Empathy Test [PET], Reading the Mind in the Eyes Test [RMET], Toronto Empathy Questionnaire [TEQ], Social Value Orientation [SVO], Scale of Social Responsibility [SSR]). • c. The change from Baseline (Day −1 [Visit 2]) to Day 28 (Visit 6) in cognitive measures of attention, spatial and working memory and executive function as measured by a composite score of the CANTAB Panel (SWM, RVP, PAL). • d. The long-term change from Baseline (Day −1 [Visit 2]) to Day 84 (Visit 7) in Social Cognition Panel scales (PET, RMET, TEQ, SVO, SSR). • e. Dose-related differences between cognitive effects of psilocybin at Baseline (Day −1 [Visit 2]), Day 7 (Visit 5) and Day 28 (Visit 6), as measured by a composite score of the CANTAB Panel (SWM, RVP, PAL). • f. Dose-related differences between psychological effects of psilocybin at Baseline (Day −1 [Visit 2]), Day 7 (Visit 5) and Day 84 (Visit 7), as measured by Social Cognition Panel scales (PET, RMET, TEQ, SVO, SSR). • g. Differences in cognitive effects of psilocybin between psilocybin-naïve and experienced subjects at Baseline (Day −1 [Visit 2]), Day 7 (Visit 5) and Day 28 (Visit 6), as measured by a composite score of the CANTAB Panel (SWM, RVP, PAL). • h. Differences in Positive and Negative Affect Schedule (PANAS) after study drug administration on Day 0 (Visit 3). • i. Differences between psilocybin and placebo in the Emotion Recognition Test (ERT), Intra-Extra Dimensional Set Shift (IED), One Touch Stockings (OTS), Verbal Fluency and Digit Span Forward at Day 7 (Visit 5). • j. A composite score of the CANTAB Panel, including the following tests: • i. Spatial Working Memory (SWM) (performed at Visit 2, Visit 5, and Visit 6). • ii. Rapid Visual Information Processing (RVP) (performed at Visit 2, Visit 5, and Visit 6). • iii. Paired Associates Learning (PAL) (performed at Visit 2, Visit 5, and Visit 6). • k. Cognitive Flexibility Panel • i. Emotion Recognition Task (ERT) (performed at Visit 5). • ii. Intra-Extra Dimensional Set Shift (IED) (performed at Visit 5). • iii. One Touch Stockings (OTS) (performed at Visit 5). • iv. Verbal Fluency (performed at Visit 5). • v. Digit Span Forward (performed at Visit 5). • l. Five Dimension Altered States of Consciousness questionnaire (5D-ASC) (performed at Visit 3). • m. PANAS (performed at Visit 2 and Visit 3). • n. NEO-Five Factor Inventory (NEO-FFI) (performed at Visit 2, Visit 5, and Visit 7). • o. Symptom Checklist-90 item (SCL-90) (performed at Visit 2, Visit 5, and Visit 7). • p. Life Changes Inventory (LCI): The LCI measures changes in attitudes and values after near-death experiences often used to evaluate personal transformation following spiritually oriented experiences and practices. (performed at Visit 5 and Visit 7). • q. Social Cognition Panel scales • i. Pictorial Empathy Test (PET) (performed at Visit 2, Visit 5, and Visit 7). • ii. Reading the Mind in the Eyes Test (RMET) (performed at Visit 2, Visit 5, and Visit 7). • iii. Social Value Orientation (SVO) (performed at Visit 2, Visit 5, and Visit 7). • iv. Toronto Empathy Questionnaire (TEQ) (performed at Visit 2, Visit 5, and Visit 7). • v. […]

CN(C)CCc1c[nH]c2cccc(OP(=O)(O)O)c12 [psilocybin]
NEO agreeableness change from baseline, difference Psilocybin 10 mg - Placebo (healthy subjects [1]; Day 7): −0.4 | NEO agreeableness change from baseline, difference Psilocybin 25 mg - Placebo (healthy subjects [1]; Day 7): −0.1 | NEO agreeableness change from baseline, difference Psilocybin (25 mg-10 mg) (healthy subjects [1]; Day 7): 0.4 | NEO conscientiousness change from baseline, difference Psilocybin 10 mg - Placebo (healthy subjects [1]; Day 7): 0.4 | NEO conscientiousness change from baseline, difference Psilocybin 25 mg - Placebo (healthy subjects [1]; Day 7): 0.7 | NEO conscientiousness change from baseline, difference Psilocybin (25 mg-10 mg) (healthy subjects [1]; Day 7): 0.3 | NEO extraversion change from baseline, difference Psilocybin 10 mg - Placebo (healthy subjects [1]; Day 7): 0.4 | NEO extraversion change from baseline, difference Psilocybin 25 mg - Placebo (healthy subjects [1]; Day 7): 0.5 | NEO extraversion change from baseline, difference Psilocybin (25 mg-10 mg) (healthy subjects [1]; Day 7): 0.1 | NEO neuroticism change from baseline, difference Psilocybin 10 mg - Placebo (healthy subjects [1]; Day 7): −0.2 | NEO neuroticism change from baseline, difference Psilocybin 25 mg - Placebo (healthy subjects [1]; Day 7): 0.2 | NEO neuroticism change from baseline, difference Psilocybin (25 mg-10 mg) (healthy subjects [1]; Day 7): −0.0 | NEO openness change from baseline, difference Psilocybin 10 mg - Placebo (healthy subjects [1]; Day 7): 1.1 | NEO openness change from baseline, difference Psilocybin 25 mg - Placebo (healthy subjects [1]; Day 7): 1.2 | NEO openness change from baseline, difference Psilocybin (25 mg-10 mg) (healthy subjects [1]; Day 7): 0.1 | NEO agreeableness change from baseline, difference Psilocybin 10 mg - Placebo (healthy subjects [1]; Day 84): −0.8 | NEO agreeableness change from baseline, difference Psilocybin 25 mg - Placebo (healthy subjects [1]; Day 84): −0.7 | NEO agreeableness change from baseline, difference Psilocybin (25 mg-10 mg) (healthy subjects [1]; Day 84): 0.1 | NEO conscientiousness change from baseline, difference Psilocybin 10 mg - Placebo (healthy subjects [1]; Day 84): 0.2 | NEO conscientiousness change from baseline, difference Psilocybin 25 mg - Placebo (healthy subjects [1]; Day 84): 1.4 | NEO conscientiousness change from baseline, difference Psilocybin (25 mg-10 mg) (healthy subjects [1]; Day 84): 1.2 | NEO extraversion change from baseline, difference Psilocybin 10 mg - Placebo (healthy subjects [1]; Day 84): −0.7 | NEO extraversion change from baseline, difference Psilocybin 25 mg - Placebo (healthy subjects [1]; Day 84): −0.5 | NEO extraversion change from baseline, difference Psilocybin (25 mg-10 mg) (healthy subjects [1]; Day 84): 0.2 | NEO neuroticism change from baseline, difference Psilocybin 10 mg - Placebo (healthy subjects [1]; Day 84): 0.3 | NEO neuroticism change from baseline, difference Psilocybin 25 mg - Placebo (healthy subjects [1]; Day 84): −1.0 | NEO neuroticism change from baseline, difference Psilocybin (25 mg-10 mg) (healthy subjects [1]; Day 84): −1.3 | NEO openness change from baseline, difference Psilocybin 10 mg - Placebo (healthy subjects [1]; Day 84): 1.1 | NEO openness change from baseline, difference Psilocybin 25 mg - Placebo (healthy subjects [1]; Day 84): 0.4 | NEO openness change from baseline, difference Psilocybin (25 mg-10 mg) (healthy subjects [1]; Day 84): −0.7 | Overall body weight [2]: not affected | SVO angle change from baseline, LS mean difference Psilocybin 10 mg - Placebo (healthy subjects [3]; Day 7, MMRM): 3.4 | SVO angle change from baseline, LS mean difference Psilocybin 25 mg - Placebo (healthy subjects [3]; Day 7, MMRM): 2.1 | SVO angle change from baseline, LS mean difference Psilocybin 25 mg-10 mg (healthy subjects [3]; Day 7, MMRM): −1.3 | SVO type change from baseline, LS mean difference Psilocybin 10 mg - Placebo (healthy subjects [3]; Day 7, MMRM): 0.1 | SVO type change from baseline, LS mean difference Psilocybin 25 mg - Placebo (healthy subjects [3]; Day 7, MMRM): 0.1 | SVO type change from baseline, LS mean difference Psilocybin 25 mg-10 mg (healthy subjects [3]; Day 7, MMRM): −0.0 | SVO angle change from baseline, LS mean difference Psilocybin 10 mg - Placebo (healthy subjects [3]; Day 84, MMRM): 3.4 | SVO angle change from baseline, LS mean difference Psilocybin 25 mg - Placebo (healthy subjects [3]; Day 84, MMRM): 2.4 | SVO angle change from baseline, LS mean difference Psilocybin 25 mg-10 mg (healthy subjects [3]; Day 84, MMRM): −1.0 | SVO type change from baseline, LS mean difference Psilocybin 10 mg - Placebo (healthy subjects [3]; Day 84, MMRM): 0.1 | SVO type change from baseline, LS mean difference Psilocybin 25 mg - Placebo (healthy subjects [3]; Day 84, MMRM): 0.1 | SVO type change from baseline, LS mean difference Psilocybin 25 mg-10 mg (healthy subjects [3]; Day 84, MMRM): −0.0
